Experiments:
[1] = tested on: β1-AR; test: β-AR density in myocardium after ischemia-reperfusion (binding assay); type: in vivo, Sprague-Dawley rats
Method: Membrane protein was prepared from left ventricles as previously described (Baker and Pitha, 1982). For saturation studies, 100 μg membrane protein was incubated in triplicate with ^125I-(−)iodocyanopindolol (I-CYP, NEN Life Science, 6.25-100 pM) in a total volume of 250 μl containing 50 mM Tris-HCl (pH 7.4), 5 mM MgCl2 at 36° C. for 60 min. The nonspecific and β2-adrenoceptor binding were determined in the presence of 1 μM (±)-alprenolol and […] (RBI), respectively. Then the reaction mixture was passed through Whatman GF/B glass filter using Brandel harvester and the radioactivity was counted for one min.

[2] = Hematology after repeated injections; type: in vivo, rat (SHR); details: for MPV: after repeated administration
Method: Safety profiles including liver transaminases, hematology, immune response and tissue pathology were investigated during three repeated injections of β1-AS-ODNs for extended periods of time.
Hematological parameters were measured after three repeated injections of β1-AS-ODN. There was no change in total leukocyte count (WBC), platelet count, hematocrit and mean platelet volume (MPV) among three groups (Table 6).

[3] = tested on: β1-AR; test: β-adrenergic receptor binding assay on renal cortex membranes; type: in vivo, rat (SHR); details: for decrease in Bmax of β1-ARs in renal cortex: charge ratio 2
Method: Four days after intravenous injection of saline (n=6) or 0.5 mg/kg inverted ODN (n=6) or 4, 10, 18 and 40 days after injection of 0.5 mg/kg β1-AS-ODN (n=24), animals were euthanized, and membranes were prepared from the renal cortex of the left kidneys as previously described (Baker and Pitha, 1982). For saturation studies, 100 μg membrane protein was incubated in triplicate with 6 concentrations of [^125](−)iodocyanopindolol (ICYP, NEN Life Science, 6.25 to 100 pmol/L) in a total volume of 250 μL containing 50 mmol/L Tris-HCl (pH 7.4) and 5 mmol/L MgCl2 at 36° C. for 60 min. The nonspecific and β2-adrenergic receptor binding levels were determined in the presence of 1 μmol/L (±)-alprenolol and […] CGP20712A (RBI), respectively. Then the reaction mixture was passed through a Whatman GF/B glass fiber filter with a Brandel harvester, and the bound radioactivity was counted for 1 min.

[4] = tested on: SHRs; test: Blood pressure of SHRs by tail cuff; type: in vivo, rat (SHR); details: for reduction of blood pressure throughout the treatment period: repeated treatment for more than 2 months; for Duration (Range) / Range of Reduction / Maximum Reduction in Blood Pressure: single i.v. 0.5 mg/kg
Method: (§1) Rats were warmed for 20 to min. in cages on heating pads. The temperature was controlled at 35° C. to 37° C. Then the rats were placed in a plastic restrainer kept at 37° C. A pneumatic pulse sensor was attached to the tail. After cuff inflation, SBP was determined as the first pulsatile oscillation on the descending side of the pressure curve. HR was determined by manual counting of pulse numbers per unit time. BP and HR were recorded by a Narco physiograph. Data values of each rat were taken as an average of at least 4 stable readings. Baseline was determined by averaging 3 days of measurements before antisense administration.
Blood pressure was measured by the tail-cuff method as described above. Systolic blood pressure (SBP) was determined as the first pulsatile oscillation on the descending side of the pressure curve. Data values of each rat were taken as an average of ≧4 stable readings. Baseline was determined by averaging 3 days of measurements before antisense administration.
as §1, with “for 20-30 min” for “for 20 to min.”, “at 35-37°” for “at 35° C. to 37°”, “Then” for “Then the”, “of” for “of the”, “least four” for “least 4”, “averaging three” for “averaging 3”

[5] = 0.5 mg/kg i.v., charge ratio 1.5
[6] = 0.5 mg/kg i.v., charge ratio 2.5
[7] = 0.5 mg/kg i.v., charge ratio 3.5
[8] = single 1 mg/kg, liposomes DNA/lipid 1:0.5

5′-AGCCGTACCCGCGCC-3′ (phosphorothioate backbone, further chemistry not given here) [Inverted ODN, 15-mer inverted ODN control, reference compound]
effect on β1-AR density in ischemic-reperfused myocardium ([1]; rat, in vivo): no effect
MPV [2]: 7.2 ± 0.20 fL
WBC ([2]; rat, in vivo): 5.75 ± 1.15 10^3/mm^3
hematocrit ([2]; rat, in vivo): 46.0 ± 0.1%
platelet ([2]; rat, in vivo): 706 ± 28 10^3/mm^3
effect on either β-AR subtype in renal cortex ([3]; 0.5 mg/kg i.v., 4 days): no effect
effect on SBP ([4]; 1 mg/kg with liposomes): No effect
reduction of blood pressure throughout the treatment period [4]: no change

5′-CCGCGCCCATGCCGA-3′ (phosphorothioate backbone, further chemistry not given here) [β1-AS-ODN, 15-mer antisense ODN targeted to the AUG start codon of rat β1-AR mRNA]
β1-AR density (Bmax) in ischemic-reperfused myocardium ([1]; vs 28.7±5.4 in saline-treated rat hearts): 15.9 ± 1.3 fmol/mg
MPV [2]: 6.93 ± 0.08 fL
WBC ([2]; rat, in vivo): 5.48 ± 0.41 10^3/mm^3
hematocrit ([2]; rat, in vivo): 46.2 ± 0.63%
platelet ([2]; rat, in vivo): 685 ± 12 10^3/mm^3
total leukocyte count (WBC), platelet count, hematocrit and MPV ([2]; rat, in vivo): no change
affinity of either subtype in renal cortex ([3]; 0.5 mg/kg i.v.): not affected
decrease in Bmax of β1-ARs in renal cortex ([3]; 0.5 mg/kg i.v., day 4): 35%
decrease in Bmax of β1-ARs in renal cortex ([3]; 0.5 mg/kg i.v., day 10): 29%
decrease in Bmax of β1-ARs in renal cortex ([3]; 0.5 mg/kg i.v., day 18): 23%
Bmax of β1-ARs in renal cortex ([3]; 0.5 mg/kg i.v., day 40): completely restored
duration of reduction of β1-AR levels in renal cortex ([3]; summary statement): 18 days
reduction of β1-AR levels in renal cortex ([3]; summary statement): ≈ 30%
duration of SBP reduction ([4]; 0.5 mg/kg i.v., charge ratio 0.5): 7 to 8 days
reduction of SBP ([4]; 0.5 mg/kg i.v., charge ratio 0.5, representative experiment): up to 33 mm Hg
duration of the hypotensive impact [4, 5]: 20 days
maximum drop in SBP [4, 5]: ≈ 35 mm Hg
duration of the hypotensive impact [4, 6]: 33 days
maximum drop in SBP [4, 6]: ≈ 35 mm Hg
duration of the hypotensive impact [4, 7]: 33 days
maximum drop in SBP [4, 7]: ≈ 25 mm Hg
effect on SBP ([4]; 0.5 mg/kg i.v., β1-AS-ODN alone (ratio 0)): did not change SBP
reduction of blood pressure throughout the treatment period [4]: 20-30 mmHg
duration of diminished SBP [4, 8]: 8 days
maximum drop in SBP [4, 8]: 38±5 mm Hg
Duration (Range) ([4]; charge ratio 0.5): 7 to 8 days
Range of Reduction ([4]; charge ratio 0.5): 24-38 mm Hg
Duration (Range) ([4]; charge ratio 1.5): 18 to 20 days
Range of Reduction ([4]; charge ratio 1.5): 18-35 mm Hg
Duration (Range) ([4]; charge ratio 2.5): 20 to 33 days
Range of Reduction ([4]; charge ratio 2.5): 20-34 mm Hg
Duration (Range) ([4]; charge ratio 3.5): 20 to 33 days
Range of Reduction ([4]; charge ratio 3.5): 15-24 mm Hg
Maximum Reduction in Blood Pressure ([4]; charge ratio liposome/ODN 0): 2 mm Hg
Maximum Reduction in Blood Pressure ([4]; charge ratio liposome/ODN 0.5): 35-38 mm Hg
Maximum Reduction in Blood Pressure ([4]; charge ratio liposome/ODN 1.5): 28-35 mm Hg
Maximum Reduction in Blood Pressure ([4]; charge ratio liposome/ODN 2.5): 30-34 mm Hg
Maximum Reduction in Blood Pressure ([4]; charge ratio liposome/ODN 3.5): 20-24 mm Hg
hypotensive effect ([4]; single i.v. injection with cationic liposomes, summary): 30 to 35 mm Hg
